ChEMBL document CHEMBL1201862, “PubChem BioAssay data set” (2004)
Calls of active or inactive are those of the source.

Tests used:
Beta-lactamase [1] = target: Beta-lactamase (Salmonella choleraesuis (strain SC-B67), UniProt Q5J463); experiment: Epi-absorbance-based counterscreen for selective VIM-2 inhibitors: dose response biochemical high throughput screening assay to identify inhibitors of TEM-1 serine-beta-lactamase.
Beta-lactamase [2] = target: T1, Beta-lactamase (Pseudomonas aeruginosa, UniProt Q79MP6); experiment: inhibition of IMP-1 beta-lactamase activity – biochemical, epi-absorbance, selectivity assay for VIM-2 inhibitor project, dose response (AID 1920)
T1 sequence (Q79MP6 whole entry): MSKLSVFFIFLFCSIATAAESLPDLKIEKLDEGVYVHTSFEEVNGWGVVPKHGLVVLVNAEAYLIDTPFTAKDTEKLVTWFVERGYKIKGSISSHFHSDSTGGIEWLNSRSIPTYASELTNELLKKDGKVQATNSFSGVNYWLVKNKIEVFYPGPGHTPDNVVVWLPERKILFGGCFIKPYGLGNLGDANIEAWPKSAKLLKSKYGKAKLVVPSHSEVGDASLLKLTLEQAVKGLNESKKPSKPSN

Beta-lactamase [3] = target: T1, Beta-lactamase; experiment: […] counterscreen for selective VIM-2 inhibitors: dose response biochemical high throughput screening assay to identify inhibitors of IMP-1 metallo-beta-lactamase.
[4] = target: DNA (cytosine-5)-methyltransferase 1 (Homo sapiens, UniProt P26358); experiment: inhibition of DNA methylation by DNMT1 – biochemical, fluorescent molecular beacon, confirmation (AID 602386); type: functional
Prothrombin = Prothrombin (Bos taurus, UniProt P00735); experiment: thrombin protease inhibitors – biochemical, fluorescence polarization, uHTS hits, dose response (AID 602369); type: functional
[5] = target: 26S proteasome non-ATPase regulatory subunit 14 (Homo sapiens, UniProt O00487); experiment: inhibition of proteasome subunit RPN11 – biochemical, fluorescence polarization, uHTS hits, confirmation (AID 602368); type: functional
[6] = target: T2, Histone-lysine N-methyltransferase NSD2 (Homo sapiens, UniProt O96028); type: biochemical
T2 sequence (O96028 whole entry): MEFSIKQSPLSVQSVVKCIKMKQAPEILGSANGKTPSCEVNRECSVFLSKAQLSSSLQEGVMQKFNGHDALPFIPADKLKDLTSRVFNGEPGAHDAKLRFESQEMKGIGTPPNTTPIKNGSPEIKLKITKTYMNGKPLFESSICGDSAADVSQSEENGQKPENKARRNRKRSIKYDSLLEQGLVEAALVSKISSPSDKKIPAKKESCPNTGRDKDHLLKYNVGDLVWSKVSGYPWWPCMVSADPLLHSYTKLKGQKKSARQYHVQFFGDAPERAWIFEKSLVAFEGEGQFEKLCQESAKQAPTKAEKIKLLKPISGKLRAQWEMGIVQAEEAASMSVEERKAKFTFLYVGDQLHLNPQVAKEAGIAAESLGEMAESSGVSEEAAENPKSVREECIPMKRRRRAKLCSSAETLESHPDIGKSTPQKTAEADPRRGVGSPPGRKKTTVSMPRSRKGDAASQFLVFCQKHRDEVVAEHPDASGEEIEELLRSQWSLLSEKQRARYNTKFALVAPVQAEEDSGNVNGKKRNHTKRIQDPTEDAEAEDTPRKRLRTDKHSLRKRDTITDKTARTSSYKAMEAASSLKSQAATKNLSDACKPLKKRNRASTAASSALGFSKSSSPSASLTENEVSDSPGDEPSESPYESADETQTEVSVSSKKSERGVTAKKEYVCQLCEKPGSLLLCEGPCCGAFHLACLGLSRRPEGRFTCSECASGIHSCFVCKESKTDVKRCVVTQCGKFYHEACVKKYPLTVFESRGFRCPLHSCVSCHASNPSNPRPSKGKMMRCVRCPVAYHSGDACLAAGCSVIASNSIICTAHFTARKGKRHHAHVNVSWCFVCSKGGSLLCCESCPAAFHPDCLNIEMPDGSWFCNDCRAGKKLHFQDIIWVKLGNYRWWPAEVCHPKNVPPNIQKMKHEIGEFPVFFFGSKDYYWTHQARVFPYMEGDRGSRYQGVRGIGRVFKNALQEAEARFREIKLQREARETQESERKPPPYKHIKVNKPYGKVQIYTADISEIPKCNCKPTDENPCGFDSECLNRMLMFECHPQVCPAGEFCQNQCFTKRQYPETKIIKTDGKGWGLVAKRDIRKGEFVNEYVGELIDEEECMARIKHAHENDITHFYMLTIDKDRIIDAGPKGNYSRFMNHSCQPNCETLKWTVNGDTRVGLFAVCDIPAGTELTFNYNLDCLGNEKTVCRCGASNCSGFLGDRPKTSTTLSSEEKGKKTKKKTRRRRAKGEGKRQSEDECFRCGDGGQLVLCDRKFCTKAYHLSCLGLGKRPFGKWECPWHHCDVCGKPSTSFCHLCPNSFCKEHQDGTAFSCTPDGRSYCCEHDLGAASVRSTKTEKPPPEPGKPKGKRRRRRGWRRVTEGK

[7] = target: G-protein coupled receptor 55 (Homo sapiens, UniProt Q9Y2T6); experiment: inhibition of LPI-stimulated GPR55 beta-arrestin translocation – imaging, U2OS, beta-arrestin-GFP, LPI agonist, primary screen (AID 2013); type: functional;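 note: antagonist potency measured as reduced agonist-driven arrestin aggregation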
[8] = target: T3, Carboxy-terminal domain RNA polymerase II polypeptide A small phosphatase 1 (Homo sapiens, UniProt Q9GZU7); experiment: CTDSP1 inhibitors, concentration-response, biochemical, absorbance readout, ultra-high-throughput screen actives (AID 540297); type: functional
T3 sequence (Q9GZU7 whole entry): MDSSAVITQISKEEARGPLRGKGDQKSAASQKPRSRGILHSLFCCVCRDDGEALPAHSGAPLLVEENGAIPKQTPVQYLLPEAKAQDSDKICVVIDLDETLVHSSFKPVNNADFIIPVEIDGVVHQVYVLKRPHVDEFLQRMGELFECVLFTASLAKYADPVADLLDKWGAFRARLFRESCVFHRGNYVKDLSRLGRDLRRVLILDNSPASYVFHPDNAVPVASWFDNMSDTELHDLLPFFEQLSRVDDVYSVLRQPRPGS

[9] = target: 72 kDa type IV collagenase (Homo sapiens, UniProt P08253); experiment: Dose Response validation of uHTS RPN11 inhibitor hits using a MMP-2 Fluorescence assay.; type: functional
72 kDa type IV collagenase, sequence (P08253 whole entry): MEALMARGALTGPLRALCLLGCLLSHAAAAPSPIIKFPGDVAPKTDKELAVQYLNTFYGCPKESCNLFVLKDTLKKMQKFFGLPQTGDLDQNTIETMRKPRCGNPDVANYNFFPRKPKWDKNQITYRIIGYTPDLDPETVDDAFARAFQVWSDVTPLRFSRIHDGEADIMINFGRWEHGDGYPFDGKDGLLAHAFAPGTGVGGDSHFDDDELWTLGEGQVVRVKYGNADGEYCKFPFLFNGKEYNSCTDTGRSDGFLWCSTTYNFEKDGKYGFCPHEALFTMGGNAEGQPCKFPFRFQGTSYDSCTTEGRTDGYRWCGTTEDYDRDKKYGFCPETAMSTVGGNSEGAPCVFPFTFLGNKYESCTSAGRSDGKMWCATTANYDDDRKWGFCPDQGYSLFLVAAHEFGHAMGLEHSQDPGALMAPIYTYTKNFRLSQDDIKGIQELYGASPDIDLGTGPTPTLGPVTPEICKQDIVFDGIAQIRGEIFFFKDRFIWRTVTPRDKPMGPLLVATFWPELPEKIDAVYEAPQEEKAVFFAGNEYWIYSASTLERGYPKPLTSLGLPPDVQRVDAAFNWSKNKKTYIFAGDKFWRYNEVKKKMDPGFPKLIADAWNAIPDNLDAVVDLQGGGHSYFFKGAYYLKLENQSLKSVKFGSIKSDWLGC

[10] = target: Potassium voltage-gated channel subfamily KQT member 2 (Rattus norvegicus, UniProt O88943); experiment: blockers of KCNQ2 channel current – cell-based, automated electrophysiology, set II, rat KCNQ2, dose response (AID 588637); type: functional
[11] = target: Tyrosine-protein phosphatase non-receptor type 5 (Homo sapiens, UniProt P54829); experiment: PTPN5 enzyme inhibition – biochemical, fluorescence intensity, uHTS hits, confirmation (AID 602372); type: functional; details: read-out: IC50_Mean
[12] = target: T4, Tyrosine-protein phosphatase non-receptor type 22 (Homo sapiens, UniProt Q9Y2R2); experiment: lymphoid phosphatase LYP inhibitors – biochemical, selectivity assay for STEP inhibitor project, dose response (AID 624241); type: functional
T4 sequence (Q9Y2R2 whole entry): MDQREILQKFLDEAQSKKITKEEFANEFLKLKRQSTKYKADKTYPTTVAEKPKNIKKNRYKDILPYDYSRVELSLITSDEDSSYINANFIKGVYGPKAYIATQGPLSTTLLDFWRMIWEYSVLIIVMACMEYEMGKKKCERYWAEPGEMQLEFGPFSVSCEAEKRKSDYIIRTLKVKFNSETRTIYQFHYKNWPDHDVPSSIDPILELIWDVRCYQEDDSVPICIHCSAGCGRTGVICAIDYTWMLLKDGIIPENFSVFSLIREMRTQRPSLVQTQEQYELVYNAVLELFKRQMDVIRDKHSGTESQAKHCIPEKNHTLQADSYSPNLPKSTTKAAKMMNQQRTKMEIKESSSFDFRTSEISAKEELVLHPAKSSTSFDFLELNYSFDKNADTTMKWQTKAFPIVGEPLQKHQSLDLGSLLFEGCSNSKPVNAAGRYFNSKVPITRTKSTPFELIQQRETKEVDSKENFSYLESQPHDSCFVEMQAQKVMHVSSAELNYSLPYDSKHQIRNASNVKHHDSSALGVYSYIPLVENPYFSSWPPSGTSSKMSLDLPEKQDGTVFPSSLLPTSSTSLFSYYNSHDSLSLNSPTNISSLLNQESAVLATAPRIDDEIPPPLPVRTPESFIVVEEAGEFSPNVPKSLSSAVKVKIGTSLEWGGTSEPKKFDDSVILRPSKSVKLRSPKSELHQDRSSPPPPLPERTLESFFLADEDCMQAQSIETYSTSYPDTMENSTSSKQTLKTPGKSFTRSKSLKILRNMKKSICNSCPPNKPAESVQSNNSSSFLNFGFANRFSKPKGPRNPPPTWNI

[13] = target: Tyrosine-protein phosphatase non-receptor type 11 (Homo sapiens, UniProt Q06124); experiment: PTPN11 enzyme inhibitors – biochemical, selectivity assay for STEP inhibitor project, dose response (AID 602367); type: functional; details: read-out: IC50_Mean
Tyrosine-protein phosphatase non-receptor type 11, sequence (Q06124 whole entry): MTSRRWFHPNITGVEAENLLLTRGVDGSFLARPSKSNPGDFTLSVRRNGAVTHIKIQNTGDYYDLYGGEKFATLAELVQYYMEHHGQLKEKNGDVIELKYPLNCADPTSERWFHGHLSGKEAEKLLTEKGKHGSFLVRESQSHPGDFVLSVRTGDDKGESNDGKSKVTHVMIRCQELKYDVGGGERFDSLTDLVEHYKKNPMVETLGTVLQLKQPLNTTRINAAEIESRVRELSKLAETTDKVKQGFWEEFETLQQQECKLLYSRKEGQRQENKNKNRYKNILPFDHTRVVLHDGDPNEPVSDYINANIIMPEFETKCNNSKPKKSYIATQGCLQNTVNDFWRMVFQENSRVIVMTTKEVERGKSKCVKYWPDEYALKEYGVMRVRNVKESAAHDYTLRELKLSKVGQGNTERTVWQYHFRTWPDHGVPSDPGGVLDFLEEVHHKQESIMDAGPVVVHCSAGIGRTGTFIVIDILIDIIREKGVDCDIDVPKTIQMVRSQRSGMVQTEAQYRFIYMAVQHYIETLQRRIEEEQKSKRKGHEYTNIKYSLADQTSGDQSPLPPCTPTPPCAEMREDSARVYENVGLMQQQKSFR

[14] = target: Dual specificity protein phosphatase 3 (Homo sapiens, UniProt P51452); experiment: VHR phosphatase inhibition, dose response, selectivity assay for STEP inhibitor project, biochemical (AID 602374); type: functional; details: read-out: IC50_Mean
[15] = viability of HCT116 lacking mutant beta-catenin – cell-based, human colon tumor, dose response (AID 1045); type: functional;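 note: HCT116 colon tumor cells with beta catenin knocked out; cells exposed to compound for 60 hours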
[16] = viability of PTEN-deleted HCT116 cells – cell-based, HCT116 PTEN knockout, dose response (AID 1047); type: functional;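 note: HCT116 colon tumor cells with PTEN knocked out; cells exposed to compound for 60 hours before readout; potency for loss of cell viability measured by luminescence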
[17] = target: T5, Low molecular weight phosphotyrosine protein phosphatase (Homo sapiens, UniProt P24666); type: functional; details: read-out: IC50_Mean
T5 sequence (P24666 whole entry): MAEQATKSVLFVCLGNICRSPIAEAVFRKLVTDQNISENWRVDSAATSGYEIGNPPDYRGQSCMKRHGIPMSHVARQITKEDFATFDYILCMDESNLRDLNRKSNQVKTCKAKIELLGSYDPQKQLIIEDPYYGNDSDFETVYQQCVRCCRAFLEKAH

[18] = target: T5, Low molecular weight phosphotyrosine protein phosphatase; type: functional; details: read-out: IC50_Mean; remark: listed apart in the source
[19] = target: Ras and Rab interactor 1/Tyrosine-protein kinase ABL1 (Homo sapiens, UniProt P00519+Q13671); type: functional;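 note: biochemical TR-FRET dose-response test measuring inhibition of binding between Rin1 and Abl proteins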
Ras and Rab interactor 1/Tyrosine-protein kinase ABL1, sequence (P00519 whole entry): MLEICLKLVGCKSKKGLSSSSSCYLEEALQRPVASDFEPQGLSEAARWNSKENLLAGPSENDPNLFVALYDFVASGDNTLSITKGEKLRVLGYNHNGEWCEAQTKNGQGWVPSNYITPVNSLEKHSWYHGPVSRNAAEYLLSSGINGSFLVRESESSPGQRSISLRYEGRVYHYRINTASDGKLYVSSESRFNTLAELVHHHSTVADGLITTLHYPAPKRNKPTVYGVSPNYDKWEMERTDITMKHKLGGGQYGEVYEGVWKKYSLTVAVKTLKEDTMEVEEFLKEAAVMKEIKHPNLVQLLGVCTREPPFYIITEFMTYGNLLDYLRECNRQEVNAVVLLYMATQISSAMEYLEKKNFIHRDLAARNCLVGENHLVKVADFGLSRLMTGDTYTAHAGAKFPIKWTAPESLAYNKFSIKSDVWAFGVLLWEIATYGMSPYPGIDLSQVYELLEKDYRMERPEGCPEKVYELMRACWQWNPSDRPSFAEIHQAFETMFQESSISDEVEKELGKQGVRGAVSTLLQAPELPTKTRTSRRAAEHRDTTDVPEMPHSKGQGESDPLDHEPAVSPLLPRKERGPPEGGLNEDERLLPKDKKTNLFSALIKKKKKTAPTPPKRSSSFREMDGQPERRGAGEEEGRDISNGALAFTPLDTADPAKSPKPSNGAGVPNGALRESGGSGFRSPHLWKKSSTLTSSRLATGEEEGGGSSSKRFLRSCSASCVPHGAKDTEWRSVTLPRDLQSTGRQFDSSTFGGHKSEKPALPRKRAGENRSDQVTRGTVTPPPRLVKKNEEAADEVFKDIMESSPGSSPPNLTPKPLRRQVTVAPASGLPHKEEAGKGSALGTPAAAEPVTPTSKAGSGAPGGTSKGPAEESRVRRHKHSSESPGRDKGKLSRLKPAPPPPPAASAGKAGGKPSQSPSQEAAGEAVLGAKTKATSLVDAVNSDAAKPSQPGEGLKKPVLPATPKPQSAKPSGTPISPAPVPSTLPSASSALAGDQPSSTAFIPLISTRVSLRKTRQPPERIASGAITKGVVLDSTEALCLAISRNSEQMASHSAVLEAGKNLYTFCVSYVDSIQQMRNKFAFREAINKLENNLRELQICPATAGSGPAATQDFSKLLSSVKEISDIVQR
Ras and Rab interactor 1/Tyrosine-protein kinase ABL1, sequence (Q13671 whole entry): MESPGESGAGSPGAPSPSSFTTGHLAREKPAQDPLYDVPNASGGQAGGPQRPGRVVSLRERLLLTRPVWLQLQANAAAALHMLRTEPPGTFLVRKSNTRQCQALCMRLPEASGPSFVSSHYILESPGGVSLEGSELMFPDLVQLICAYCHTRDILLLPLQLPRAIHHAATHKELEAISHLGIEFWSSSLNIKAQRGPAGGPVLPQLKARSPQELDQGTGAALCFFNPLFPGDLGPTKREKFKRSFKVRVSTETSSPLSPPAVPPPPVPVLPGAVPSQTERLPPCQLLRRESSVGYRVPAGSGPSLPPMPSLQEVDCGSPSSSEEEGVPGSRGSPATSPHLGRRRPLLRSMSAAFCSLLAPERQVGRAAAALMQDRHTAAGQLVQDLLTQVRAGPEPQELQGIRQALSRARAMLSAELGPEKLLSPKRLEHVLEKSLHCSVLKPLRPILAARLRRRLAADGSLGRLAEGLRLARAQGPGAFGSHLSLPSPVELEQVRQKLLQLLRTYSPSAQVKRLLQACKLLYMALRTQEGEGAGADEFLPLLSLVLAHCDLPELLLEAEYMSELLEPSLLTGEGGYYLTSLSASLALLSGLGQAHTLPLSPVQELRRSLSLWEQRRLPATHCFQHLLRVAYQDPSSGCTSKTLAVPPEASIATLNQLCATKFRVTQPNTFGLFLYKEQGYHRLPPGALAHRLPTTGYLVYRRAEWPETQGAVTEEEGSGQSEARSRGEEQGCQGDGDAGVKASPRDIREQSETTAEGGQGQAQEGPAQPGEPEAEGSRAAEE

[20] = target: T6, ATP-dependent translocase ABCB1 (Homo sapiens, UniProt P08183); experiment: P-gp JC-1 efflux blockade concentration-response – Jurkat-DNR cells, flow cytometry, set 2, dose response (AID 504569); type: functional; details: read-out: EC50_MICROM_;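 note: potency of pump inhibitors that raise cellular JC-1 green fluorescence up to the nicardipine level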
T6 sequence (P08183 whole entry): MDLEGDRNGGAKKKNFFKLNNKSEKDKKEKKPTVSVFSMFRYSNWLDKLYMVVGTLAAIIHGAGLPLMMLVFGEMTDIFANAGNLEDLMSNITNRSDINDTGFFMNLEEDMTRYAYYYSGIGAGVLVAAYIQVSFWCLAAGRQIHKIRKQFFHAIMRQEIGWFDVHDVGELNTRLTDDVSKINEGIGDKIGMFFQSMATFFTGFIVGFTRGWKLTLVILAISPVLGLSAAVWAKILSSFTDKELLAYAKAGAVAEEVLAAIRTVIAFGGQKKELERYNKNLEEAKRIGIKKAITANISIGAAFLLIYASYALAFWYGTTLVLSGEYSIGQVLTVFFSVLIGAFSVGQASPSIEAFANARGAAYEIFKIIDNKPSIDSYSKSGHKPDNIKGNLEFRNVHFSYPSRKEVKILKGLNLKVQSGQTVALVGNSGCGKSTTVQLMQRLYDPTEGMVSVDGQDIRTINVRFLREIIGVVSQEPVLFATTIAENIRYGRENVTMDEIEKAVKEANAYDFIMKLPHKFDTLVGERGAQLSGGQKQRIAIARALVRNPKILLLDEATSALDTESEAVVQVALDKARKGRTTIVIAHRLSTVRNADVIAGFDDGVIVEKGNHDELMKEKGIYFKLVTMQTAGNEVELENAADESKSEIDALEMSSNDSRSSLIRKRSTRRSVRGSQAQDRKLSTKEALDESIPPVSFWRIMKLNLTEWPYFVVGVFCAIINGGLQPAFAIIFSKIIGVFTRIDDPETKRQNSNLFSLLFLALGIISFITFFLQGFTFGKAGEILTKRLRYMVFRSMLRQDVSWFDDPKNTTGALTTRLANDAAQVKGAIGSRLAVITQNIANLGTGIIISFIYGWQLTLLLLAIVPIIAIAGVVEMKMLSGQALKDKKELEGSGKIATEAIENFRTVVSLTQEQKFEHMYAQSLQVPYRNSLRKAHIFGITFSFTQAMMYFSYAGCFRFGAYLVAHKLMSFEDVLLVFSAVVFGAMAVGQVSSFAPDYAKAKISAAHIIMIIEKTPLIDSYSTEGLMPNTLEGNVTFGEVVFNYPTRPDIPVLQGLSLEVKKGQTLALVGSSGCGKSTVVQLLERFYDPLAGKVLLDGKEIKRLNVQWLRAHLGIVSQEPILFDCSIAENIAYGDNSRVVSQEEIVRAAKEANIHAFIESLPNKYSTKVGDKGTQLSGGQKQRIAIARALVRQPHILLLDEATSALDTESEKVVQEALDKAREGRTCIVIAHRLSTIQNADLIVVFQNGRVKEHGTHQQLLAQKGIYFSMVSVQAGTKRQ

[21] = target: T6, ATP-dependent translocase ABCB1; experiment: inhibition of BCRP-mediated JC-1 efflux – Ig-MXP3 cells, flow cytometry, set 2, dose response (AID 504566); type: functional; details: read-out: EC50_MICROM_;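 note: flow cytometry median green fluorescence of retained JC-1 dye; potency of efflux pump inhibition measured as rising substrate retention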

Beta-lactamase (Salmonella choleraesuis (strain SC-B67), UniProt Q5J463), sequence (Q5J463 whole entry): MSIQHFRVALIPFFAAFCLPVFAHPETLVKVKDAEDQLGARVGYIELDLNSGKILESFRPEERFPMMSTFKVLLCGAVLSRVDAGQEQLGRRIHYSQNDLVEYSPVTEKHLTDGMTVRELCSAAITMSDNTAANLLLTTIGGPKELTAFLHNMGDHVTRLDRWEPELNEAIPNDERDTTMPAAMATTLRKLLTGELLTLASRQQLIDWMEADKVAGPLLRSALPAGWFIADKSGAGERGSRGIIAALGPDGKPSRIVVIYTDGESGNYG

Cc1c(C)c2c(OCC(=O)N3CCC[C@H]3C(=O)O)cc3c(c2oc1=O)CCC(C)(C)O3
IC50 (Beta-lactamase [1]): > 59.6 µM (inactive)
IC50 (Beta-lactamase [2]): > 59.6 µM (inactive)
IC50 (Beta-lactamase [3]): > 59.6 µM (inactive)

COc1ccc(CN2C(=O)NC(=O)/C(=C\c3ccco3)C2=O)cc1
IC50 [4]: 12.3 µM (active)
IC50 (Prothrombin): 54.1 µM (active)
IC50 [5]: 26.5 µM (active)
AC50 [6]: 12.8 µM (active)
IC50 [7]: 3.34 µM (active)
IC50 [8]: 3.91 µM (active)
IC50 [9]: 12.7 µM (active)

COc1ccc(CCN(C)C(=O)c2cc(-c3ccccc3)nc3ccc(C)cc23)cc1OC
IC50 [10]: 0.478 µM (active)

CCOc1ccc(C(=O)Nc2cc(-c3nc4ccccc4[nH]3)ccc2Cl)cc1[N+](=O)[O-]
IC50 [11]: 6.73 µM (active)
IC50 [12]: 29.9 µM (inactive)
IC50 [13]: 2.14 µM (active)
IC50 [14]: 3.11 µM (active)
EC50 [15]: 8.99 µM (active)
EC50 [16]: 8.7 µM (active)

Cc1nc(N)nc(N)c1-c1ccc([N+](=O)[O-])cc1
IC50 [17]: 12.3 µM (active)
IC50 [18]: 11.7 µM (active)

CCN(CC(=O)Nc1ccc(NC(C)=O)cc1)C(=O)c1ccccc1SCc1c(C)noc1C
IC50 [19]: 2.22 µM (active)

O=C(c1ccoc1)N1CCN(c2cc(-c3ccccc3)nc3cc(-c4ccccc4)nn23)CC1
EC50 [20]: 1.79 µM (active)
EC50 [21]: 2.02 µM (active)
